Test results: patent publication US20230049952A1, “METHODS AND COMPOUNDS FOR RESTORING MUTANT P53 FUNCTION” (PMV Pharmaceuticals, Inc., priority 2020, published 2023)

Test system: p53 signaling pathway in MT373 tumors
Test: MT373 syngeneic sarcoma model: mouse p53 signaling pathway profiling panel
Assay type: in vivo

CCn1c(C#CCNc2ccccc2)cc2cc(CNC3CCN(C)CC3)ccc21 [Compound 1, 1-Anilino-3-{1-ethyl-5-[(1-methyl-4-piperidylamino)methyl]-1H-indol-2-yl}-2-propyne]
Sirt1 fold increase or percent reduction vs vehicle control (150 mg/kg BIDx1, 48 h): 13.36 fold or % | Stat1 fold increase or percent reduction vs vehicle control (150 mg/kg BIDx1, 48 h): 1.72 fold or % | Tnf fold increase or percent reduction vs vehicle control (150 mg/kg BIDx1, 48 h): 27.80 fold or % | Traf1 fold increase or percent reduction vs vehicle control (150 mg/kg BIDx1, 48 h): 1.04 fold or % | Trp53bp2 fold increase or percent reduction vs vehicle control (150 mg/kg BIDx1, 48 h): 8.14 fold or % | Trp53 fold increase or percent reduction vs vehicle control (150 mg/kg BIDx1, 48 h): 22.40 fold or % | Apex1 fold increase or percent reduction vs vehicle control (150 mg/kg BIDx1, 72 h): 15.68 fold or % | Atm fold increase or percent reduction vs vehicle control (150 mg/kg BIDx1, 72 h): 18.10 fold or % | Atr fold increase or percent reduction vs vehicle control (150 mg/kg BIDx1, 72 h): 1.15 fold or % | Bag1 fold increase or percent reduction vs vehicle control (150 mg/kg BIDx1, 72 h): 21.87 fold or % | Bax fold increase or percent reduction vs vehicle control (150 mg/kg BIDx1, 72 h): 21.38 fold or % | Bbc3 fold increase or percent reduction vs vehicle control (150 mg/kg BIDx1, 72 h): 1.10 fold or % | Bcl2 fold increase or percent reduction vs vehicle control (150 mg/kg BIDx1, 72 h): 6.74 fold or % | Bid fold increase or percent reduction vs vehicle control (150 mg/kg BIDx1, 72 h): 2.75 fold or % | Birc5 fold increase or percent reduction vs vehicle control (150 mg/kg BIDx1, 72 h): 24.85 fold or % | Brca1 fold increase or percent reduction vs vehicle control (150 mg/kg BIDx1, 72 h): 17.44 fold or % | Brca2 fold increase or percent reduction vs vehicle control (150 mg/kg BIDx1, 72 h): 19.53 fold or % | Btg2 fold increase or percent reduction vs vehicle control (150 mg/kg BIDx1, 72 h): 23.10 fold or % | Casp2 fold increase or percent reduction vs vehicle control (150 mg/kg BIDx1, 72 h): 8.98 fold or % | Ccnb1 fold increase or percent reduction vs vehicle control (150 mg/kg BIDx1, 72 h): 18.77 fold or % | Ccne1 fold increase or percent reduction vs vehicle control (150 mg/kg BIDx1, 72 h): 1.04 fold or % | Ccng1 fold increase or percent reduction vs vehicle control (150 mg/kg BIDx1, 72 h): 11.26 fold or % | Ccnh fold increase or percent reduction vs vehicle control (150 mg/kg BIDx1, 72 h): 5.78 fold or % | Cdc25a fold increase or percent reduction vs vehicle control (150 mg/kg BIDx1, 72 h): 1.65 fold or % | Cdk1 fold increase or percent reduction vs vehicle control (150 mg/kg BIDx1, 72 h): 22.76 fold or % | Cdk4 fold increase or percent reduction vs vehicle control (150 mg/kg BIDx1, 72 h): 19.73 fold or % | Cdkn1a fold increase or percent reduction vs vehicle control (150 mg/kg BIDx1, 72 h): 13.49 fold or % | Cdkn2a fold increase or percent reduction vs vehicle control (150 mg/kg BIDx1, 72 h): 20.75 fold or % | Chek1 fold increase or percent reduction vs vehicle control (150 mg/kg BIDx1, 72 h): 17.70 fold or % | Cradd fold increase or percent reduction vs vehicle control (150 mg/kg BIDx1, 72 h): 16.72 fold or % | Cul9 fold increase or percent reduction vs vehicle control (150 mg/kg BIDx1, 72 h): 1.54 fold or % | Dapk1 fold increase or percent reduction vs vehicle control (150 mg/kg BIDx1, 72 h): 1.39 fold or % | Dnmt1 fold increase or percent reduction vs vehicle control (150 mg/kg BIDx1, 72 h): 1.03 fold or % | E2f1 fold increase or percent reduction vs vehicle control (150 mg/kg BIDx1, 72 h): 1.10 fold or % | E2f3 fold increase or percent reduction vs vehicle control (150 mg/kg BIDx1, 72 h): 17.09 fold or % | Egfr fold increase or percent reduction vs vehicle control (150 mg/kg BIDx1, 72 h): 13.15 fold or % | Egr1 fold increase or percent reduction vs vehicle control (150 mg/kg BIDx1, 72 h): 38.21 fold or % | Ep300 fold increase or percent reduction vs vehicle control (150 mg/kg BIDx1, 72 h): 2.74 fold or % | Ercc1 fold increase or percent reduction vs vehicle control (150 mg/kg BIDx1, 72 h): 20.27 fold or % | Esr1 fold increase or percent reduction vs vehicle control (150 mg/kg BIDx1, 72 h): 1.82 fold or % | Fadd fold increase or percent reduction vs vehicle control (150 mg/kg BIDx1, 72 h): 1.18 fold or % | Fas fold increase or percent reduction vs vehicle control (150 mg/kg BIDx1, 72 h): 12.10 fold or % | Fasl fold increase or percent reduction vs vehicle control (150 mg/kg BIDx1, 72 h): 1.29 fold or % | Foxo3 fold increase or percent reduction vs vehicle control (150 mg/kg BIDx1, 72 h): 1.08 fold or % | Gadd45a fold increase or percent reduction vs vehicle control (150 mg/kg BIDx1, 72 h): 12.31 fold or % | Hif1a fold increase or percent reduction vs vehicle control (150 mg/kg BIDx1, 72 h): 1.18 fold or % | Il6 fold increase or percent reduction vs vehicle control (150 mg/kg BIDx1, 72 h): 61.14 fold or % | Jun fold increase or percent reduction vs vehicle control (150 mg/kg BIDx1, 72 h): 20.41 fold or % | Kras fold increase or percent reduction vs vehicle control (150 mg/kg BIDx1, 72 h): 1.08 fold or % | Lig4 fold increase or percent reduction vs vehicle control (150 mg/kg BIDx1, 72 h): 1.27 fold or % | Mdm2 fold increase or percent reduction vs vehicle control (150 mg/kg BIDx1, 72 h): 1.10 fold or % | Mdm4 fold increase or percent reduction vs vehicle control (150 mg/kg BIDx1, 72 h): 13.89 fold or % | Mel1 fold increase or percent reduction vs vehicle control (150 mg/kg BIDx1, 72 h): 17.68 fold or % | Mlh1 fold increase or percent reduction vs vehicle control (150 mg/kg BIDx1, 72 h): 1.52 fold or % | Msh2 fold increase or percent reduction vs vehicle control (150 mg/kg BIDx1, 72 h): 4.98 fold or % | Myod1 fold increase or percent reduction vs vehicle control (150 mg/kg BIDx1, 72 h): 3.03 fold or % | Nf1 fold increase or percent reduction vs vehicle control (150 mg/kg BIDx1, 72 h): 12.40 fold or % | Nfkb1 fold increase or percent reduction vs vehicle control (150 mg/kg BIDx1, 72 h): 1.15 fold or % | Pcna fold increase or percent reduction vs vehicle control (150 mg/kg BIDx1, 72 h): 21.44 fold or % | Pmaip1 fold increase or percent reduction vs vehicle control (150 mg/kg BIDx1, 72 h): 1.41 fold or % | Ppm1d fold increase or percent reduction vs vehicle control (150 mg/kg BIDx1, 72 h): 0.20 fold or % | Prkca fold increase or percent reduction vs vehicle control (150 mg/kg BIDx1, 72 h): 4.15 fold or % | Pten fold increase or percent reduction vs vehicle control (150 mg/kg BIDx1, 72 h): 1.14 fold or % | Pttg1 fold increase or percent reduction vs vehicle control (150 mg/kg BIDx1, 72 h): 1.19 fold or % | Rb1 fold increase or percent reduction vs vehicle control (150 mg/kg BIDx1, 72 h): 3.47 fold or % | Rela fold increase or percent reduction vs vehicle control (150 mg/kg BIDx1, 72 h): 2.50 fold or % | Rprm fold increase or percent reduction vs vehicle control (150 mg/kg BIDx1, 72 h): 1.51 fold or % | Serpinb5 fold increase or percent reduction vs vehicle control (150 mg/kg BIDx1, 72 h): 1.00 fold or % | Sesn2 fold increase or percent reduction vs vehicle control (150 mg/kg BIDx1, 72 h): 1.31 fold or % | Sfn fold increase or percent reduction vs vehicle control (150 mg/kg BIDx1, 72 h): 7.33 fold or % | Sirt1 fold increase or percent reduction vs vehicle control (150 mg/kg BIDx1, 72 h): 1.08 fold or % | Stat1 fold increase or percent reduction vs vehicle control (150 mg/kg BIDx1, 72 h): 1.78 fold or % | Tnf fold increase or percent reduction vs vehicle control (150 mg/kg BIDx1, 72 h): 1.15 fold or % | Traf1 fold increase or percent reduction vs vehicle control (150 mg/kg BIDx1, 72 h): 1.41 fold or % | Trp53bp2 fold increase or percent reduction vs vehicle control (150 mg/kg BIDx1, 72 h): 1.07 fold or % | Trp53 fold increase or percent reduction vs vehicle control (150 mg/kg BIDx1, 72 h): 1.21 fold or % | Bbc3 mRNA increase (150 mg/kg BID×1, 24 h): 2.27 fold | Birc5 mRNA decrease (150 mg/kg BID×1, 24 h): 53.57% | Ccng1 mRNA increase (150 mg/kg BID×1, 24 h): 6.84 fold | Cdc25c mRNA decrease (150 mg/kg BID×1, 24 h): 41.75% | Cdk1 mRNA decrease (150 mg/kg BID×1, 24 h): 64.58% | Cdkn1a mRNA increase (150 mg/kg BID×1, 24 h): 10.93 fold | Chek1 mRNA decrease (150 mg/kg BID×1, 24 h): 58.77% | Egfr mRNA change (150 mg/kg BID×1, 24 h): 47.37%
